Series [1] deals with T1, SARS-CoV-2 PLpro (Severe acute respiratory syndrome coronavirus 2, UniProt P0DTD1). The series can be described thus: biochemical.
For series [2], the target named is T2, SARS-CoV-2 Mpro (Severe acute respiratory syndrome coronavirus 2, UniProt P0DTD1). The series can be described thus: biochemical.
Series [3] concerns the target T3, BtCoV Rp3 Mpro (Bat coronavirus Rp3/2004, UniProt P0C6W6). Description: biochemical. It counts as binding.
In series [4] the target is T4, MERS-CoV PLpro (Middle East respiratory syndrome-related coronavirus, UniProt K9N7C7). The series can be described thus: biochemical. It counts as binding.
Series [5] deals with T5, SARS-CoV PLpro (Severe acute respiratory syndrome coronavirus, UniProt P0C6X7). The series can be described thus: biochemical. The format is binding.
The target of series [6] is T6, SARS-CoV Mpro (Severe acute respiratory syndrome coronavirus, UniProt P0C6X7). Description: biochemical. The format is binding.
Series [7] deals with T2, SARS-CoV-2 Mpro. The series can be described thus: biochemical. It counts as binding. To be noted: pH 7.4, read-out: ka.
A short description of series [8]: in vitro. As to conditions: human.
For series [9], the target named is T7, MERS-CoV Mpro (Middle East respiratory syndrome-related coronavirus, UniProt K9N7C7). The series can be described thus: biochemical. The format is binding.
The target of series [10] is T1, SARS-CoV-2 PLpro. The series can be described thus: biochemical. As to conditions: pH 7.4, read-out: ka. It counts as binding.
Series [11] deals with RD cells. To be noted: concentrations up to 100 µM.
The target in series [12] is T8, BtCoV Rp3 PLpro (Bat coronavirus Rp3/2004, UniProt P0C6W6). The series can be described thus: biochemical. The format is binding.
Series [13] deals with HCoV-OC43. The series can be described thus: microbe, parasite or virus in culture. The format is cell-based, human coronavirus OC43. To be noted: for EC50: Betacoronavirus 1, OC43, RD, 48 h.
For series [14], the target named is T6, SARS-CoV Mpro. The format is binding.
Series [15] has as its target T4, MERS-CoV PLpro. The format is binding.
The target of series [16] is T8, BtCoV Rp3 PLpro. The format is binding.
Series [17] concerns the target T7, MERS-CoV Mpro. The format is binding.
Series [18] addresses T5, SARS-CoV PLpro. Description: biochemical.
In series [19] the target is T3, BtCoV Rp3 Mpro. The series can be described thus: biochemical.
Series [20] concerns the target SARS-CoV-2 PLpro WT (Severe acute respiratory syndrome coronavirus 2, UniProt P0DTD1). It counts as binding.

“And” between values parts separate entries of the source, which are not always exact repeats. Equal values may be shown once.

Consider two compounds from PMC11699025 (Natural Products and Bioprospecting, 2025).

T7 sequence (K9N7C7 3248-3553 limits assumed): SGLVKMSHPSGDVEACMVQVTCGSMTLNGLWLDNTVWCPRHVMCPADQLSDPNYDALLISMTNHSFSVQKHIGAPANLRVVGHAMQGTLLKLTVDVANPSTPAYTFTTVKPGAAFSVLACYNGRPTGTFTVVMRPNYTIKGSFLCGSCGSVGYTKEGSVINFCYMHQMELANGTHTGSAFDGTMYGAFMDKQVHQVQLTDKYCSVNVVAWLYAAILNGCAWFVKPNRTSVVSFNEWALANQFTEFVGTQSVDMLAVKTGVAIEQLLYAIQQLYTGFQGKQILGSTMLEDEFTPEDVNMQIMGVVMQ
T4 sequence (K9N7C7 1552-1823 limits assumed): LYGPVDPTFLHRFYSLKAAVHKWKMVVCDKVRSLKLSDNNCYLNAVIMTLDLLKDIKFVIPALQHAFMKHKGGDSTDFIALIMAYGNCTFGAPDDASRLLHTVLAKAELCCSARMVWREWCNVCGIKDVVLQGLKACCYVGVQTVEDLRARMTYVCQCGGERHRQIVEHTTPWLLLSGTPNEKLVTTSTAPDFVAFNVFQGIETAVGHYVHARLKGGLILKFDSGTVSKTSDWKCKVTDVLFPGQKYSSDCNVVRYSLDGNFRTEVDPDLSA

Turning to `Cc1cc(O)c(O)c(Oc2cc(C)cc(O)c2O)c1` [Violaceol I, violaceol I], the IC50 in series [1] was 42300 ± 1020 nM; in [2], 8270 ± 1150 nM. Also, the kon in [3] (pH 7.4, read-out: ka) was 532 M⁻¹ s⁻¹; in series [4] (pH 7.4, read-out: ka), 479 M⁻¹ s⁻¹; in series [5] (pH 7.4, read-out: ka) it was 516 M⁻¹ s⁻¹; in series [6] (pH 7.4, read-out: ka), 547 M⁻¹ s⁻¹; in [7], 969 M⁻¹ s⁻¹; in [9] (pH 7.4, read-out: ka), 454 M⁻¹ s⁻¹. Besides, the kon in [10] was 494 M⁻¹ s⁻¹; in series [12] (pH 7.4, read-out: ka) it was 551 M⁻¹ s⁻¹. The compound further registered a CC50 at 48 h in [8] above 100000 nM. The “influence on cell viability” value in series [11] is on record as “no influence”. Also, the “Selection Index (SI)” value in series [13] is recorded as “>42.02”. The EC50 in [13] turned out to be 2380 ± 20 nM.
Consider `Cc1cc(O)c(O)c(Oc2cc(C)cc(O)c2Oc2cc(C)cc(O)c2O)c1` [Sydowiol B, sydowiol B], for which the Tm value was 57.17 ± 0.19 (1.25) ℃ and 56.82 ± 0.25 (0.90) ℃ and 56.37 ± 0.28 (0.45) ℃ in series [14]; 57.67 ± 0.32 (2.78) ℃ and 57.20 ± 0.13 (2.31) ℃ and 56.95 ± 0.13 (2.06) ℃ in series [15]; 53.59 ± 0.20 (4.00) ℃ and 53.87 ± 0.13 (4.28) ℃ and 52.79 ± 0.27 (3.20) ℃ in [16]; 47.47 ± 0.33 (1.37) ℃ and 47.33 ± 0.00 (1.23) ℃ and 47.27 ± 0.16 (1.17) ℃ in series [17]; 51.24 ± 0.36 (5.29) ℃ and 50.31 ± 0.06 (4.36) ℃ in [20]. Moreover, in [16], the “△Tm” value is 53.59 ± 0.20 (4.00) ℃ and 53.87 ± 0.13 (4.28) ℃ and 52.79 ± 0.27 (3.20) ℃. Further, the Kd was 1930 nM in series [3]; 450 nM in series [4]; 14200 nM in series [5]; 2540 nM in series [6]; 9350 nM in [9]; 11800 nM in series [12]. Besides, the CC50 at 48 h in [8] was above 200000 nM. For the same compound, the results for the IC50 in [18] and in series [19] were 2420 ± 1100 nM and 1160 ± 1230 nM, respectively. Besides, in series [11], the “influence on cell viability” value is on record as “no influence”. In series [13], this compound gave an EC50 of 690 ± 100 nM.
